Legend:
[1] = system: H460 cells; assay: Inhibition of KRas-mediated phosphorylation of ERK (Cisbio HTRF pERK), H460 cells; format: cell-based; settings: Homo sapiens, NCI-H460, 3 h, 3 hr compound incubation, Cisbio pERK HTRF
[2] = target: KRas G12A (Homo sapiens, UniProt P01116, G12A); format: binding; settings: for inhibition at 0.01 µM: single point, 10 nM compound, read-out: Binding to KRas (% inhibition at 10 nM) G12A; for IC50: TR-FRET displacement, read-out: Binding to KRas (IC50 nM) G12A
[3] = system: ASPC1 cells; assay: Inhibition of KRas-mediated phosphorylation of ERK (Cisbio HTRF pERK), ASPC1 cells; format: cell-based; settings: Homo sapiens, ASPC1, 3 h, AsPC-1 cells; 3 hr compound incubation; Cisbio pERK HTRF
[4] = target: KRas Q61H (Homo sapiens, UniProt P01116, Q61H); assay: KRas binding assay (TR-FRET displacement), KRas Q61H; settings: for inhibition at 0.01 µM: single point, 10 nM compound; for IC50: TR-FRET displacement
[5] = system: H727 cells; assay: Inhibition of KRas-mediated phosphorylation of ERK (Cisbio HTRF pERK), H727 cells; format: cell-based; settings: Homo sapiens, NCI-H727, 3 h, 3 hr compound incubation, Cisbio pERK HTRF
[6] = system: MKN1 cells; assay: Inhibition of KRas-mediated phosphorylation of ERK (Cisbio HTRF pERK), MKN1 cells; format: cell-based; settings: Homo sapiens, MKN-1, 3 hour compound incubation, Cisbio pERK HTRF
Procedure, shortened: (§1)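 Phospho-ERK signal measured by HTRF after cells had been plated at 6,000/well in RPMI supplemented with 10% FBS on day 1.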

[7] = target: KRas G13D (Homo sapiens, UniProt P01116, G13D); format: binding; settings: for inhibition at 0.01 µM: single point, 10 nM compound, read-out: Binding to KRas (% inhibition at 10 nM) G13D; for IC50: TR-FRET displacement, read-out: Binding to KRas (IC50 nM) G13D
[8] = system: HCT116 cells; assay: Inhibition of KRas-mediated phosphorylation of ERK (Cisbio HTRF pERK), HCT116 cells; format: cell-based; settings: Homo sapiens, HCT-116, 3 h, 3 hr compound incubation, Cisbio pERK HTRF
[9] = system: A549 cells; assay: Inhibition of KRas-mediated phosphorylation of ERK (Cisbio HTRF pERK), A549 cells; format: cell-based; settings: Homo sapiens, A549, 3 h, 3 hr compound incubation, Cisbio pERK HTRF
[10] = target: KRas G12R (Homo sapiens, UniProt P01116, G12R); assay: biochemical; settings: Binding to KRas (IC50 nM) G12R, TR-FRET displacement, KRas G12R
[11] = target: KRas G12V (Homo sapiens, UniProt P01116, G12V); assay: biochemical; settings: Binding to KRas (IC50 nM) G12V, TR-FRET displacement, KRas G12V
[12] = target: KRas G12S (Homo sapiens, UniProt P01116, G12S); format: binding; settings: for inhibition at 0.01 µM: single point, 10 nM compound, read-out: Binding to KRas (% inhibition at 10 nM) G12S; for IC50: TR-FRET displacement, read-out: Binding to KRas (IC50 nM) G12S
[13] = system: PSN1 cells; assay: Inhibition of KRas-mediated phosphorylation of ERK (Cisbio HTRF pERK), PSN1 cells; format: cell-based; settings: Homo sapiens, PSN1, 3 h, 3 hour compound incubation, Cisbio pERK HTRF
Procedure, shortened: as §1

[14] = target: KRas WT (Homo sapiens, UniProt P01116); assay: KRas binding assay (TR-FRET displacement), KRas WT; settings: for inhibition at 0.01 µM: single point, 10 nM compound; for IC50: TR-FRET displacement
[15] = target: KRas G12D (Homo sapiens, UniProt P01116, G12D); assay: biochemical; settings: Binding to KRas (IC50 nM) G12D, TR-FRET displacement, KRas G12D
[16] = target: KRas G12C (Homo sapiens, UniProt P01116, G12C); format: binding; settings: for inhibition at 0.01 µM: single point, 10 nM compound, read-out: Binding to KRas (% inhibition at 10 nM) G12C; for IC50: TR-FRET displacement, read-out: Binding to KRas (IC50 nM) G12C
KRas G12C, sequence (P01116 1-169 isoform P01116-2 G12C): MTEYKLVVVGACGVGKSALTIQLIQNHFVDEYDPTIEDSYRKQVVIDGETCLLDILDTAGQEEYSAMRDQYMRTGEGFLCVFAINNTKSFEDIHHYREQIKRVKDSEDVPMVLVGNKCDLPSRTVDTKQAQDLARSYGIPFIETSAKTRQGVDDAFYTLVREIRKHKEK

KRas G12A, sequence (P01116 1-169 isoform P01116-2 G12A): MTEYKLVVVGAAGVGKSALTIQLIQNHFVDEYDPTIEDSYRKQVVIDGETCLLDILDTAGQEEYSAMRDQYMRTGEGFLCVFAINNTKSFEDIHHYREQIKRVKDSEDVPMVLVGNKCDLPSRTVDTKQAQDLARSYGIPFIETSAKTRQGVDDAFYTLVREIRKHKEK
KRas G12V, sequence (P01116 1-169 isoform P01116-2 G12V): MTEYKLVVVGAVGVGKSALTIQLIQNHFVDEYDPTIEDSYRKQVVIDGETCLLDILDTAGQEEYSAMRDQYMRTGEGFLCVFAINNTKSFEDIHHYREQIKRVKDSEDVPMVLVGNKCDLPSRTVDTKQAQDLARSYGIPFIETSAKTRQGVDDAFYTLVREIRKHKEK
KRas G13D, sequence (P01116 1-169 isoform P01116-2 G13D): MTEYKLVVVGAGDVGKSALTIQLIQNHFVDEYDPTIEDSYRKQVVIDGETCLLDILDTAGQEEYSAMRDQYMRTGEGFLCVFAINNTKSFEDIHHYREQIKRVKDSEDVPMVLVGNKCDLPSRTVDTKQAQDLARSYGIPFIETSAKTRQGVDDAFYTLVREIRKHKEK
KRas Q61H, sequence (P01116 1-169 isoform P01116-2 Q61H): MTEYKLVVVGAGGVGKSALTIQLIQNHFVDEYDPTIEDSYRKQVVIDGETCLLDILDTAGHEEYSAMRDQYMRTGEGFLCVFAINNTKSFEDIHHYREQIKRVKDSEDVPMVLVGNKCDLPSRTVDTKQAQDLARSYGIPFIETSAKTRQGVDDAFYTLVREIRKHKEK
KRas G12R, sequence (P01116 1-169 isoform P01116-2 G12R): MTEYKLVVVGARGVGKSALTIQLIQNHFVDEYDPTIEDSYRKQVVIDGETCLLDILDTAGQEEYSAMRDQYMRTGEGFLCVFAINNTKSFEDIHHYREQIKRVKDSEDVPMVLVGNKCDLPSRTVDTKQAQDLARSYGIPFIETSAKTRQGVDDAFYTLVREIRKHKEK
KRas WT, sequence (P01116 1-169 isoform P01116-2): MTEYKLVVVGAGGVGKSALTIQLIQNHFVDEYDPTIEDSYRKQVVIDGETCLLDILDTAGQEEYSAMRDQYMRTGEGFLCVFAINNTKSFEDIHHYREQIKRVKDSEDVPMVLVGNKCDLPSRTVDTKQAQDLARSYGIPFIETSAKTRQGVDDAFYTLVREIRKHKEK
KRas G12D, sequence (P01116 1-169 isoform P01116-2 G12D): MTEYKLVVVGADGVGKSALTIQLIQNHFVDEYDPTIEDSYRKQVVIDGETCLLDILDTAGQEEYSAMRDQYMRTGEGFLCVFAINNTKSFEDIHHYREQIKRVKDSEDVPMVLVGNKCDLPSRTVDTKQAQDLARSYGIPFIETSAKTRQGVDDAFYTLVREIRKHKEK
KRas G12S, sequence (P01116 1-169 isoform P01116-2 G12S): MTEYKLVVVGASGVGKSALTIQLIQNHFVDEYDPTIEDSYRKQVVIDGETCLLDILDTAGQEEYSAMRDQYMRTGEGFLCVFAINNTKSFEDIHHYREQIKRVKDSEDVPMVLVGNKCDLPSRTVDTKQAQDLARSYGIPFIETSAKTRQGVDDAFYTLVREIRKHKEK

Row | Structure (SMILES) | IC50 [1] [nM] | inhibition at 0.01 µM [2] [%] | IC50 [3] [nM] | inhibition at 0.01 µM [4] [%] | IC50 [5] [nM] | IC50 [6] [nM] | inhibition at 0.01 µM [7] [%] | IC50 [8] [nM] | IC50 [9] [nM] | IC50 [10] [nM] | IC50 [11] [nM] | inhibition at 0.01 µM [12] [%] | IC50 [13] [nM] | inhibition at 0.01 µM [14] [%] | IC50 [15] [nM] | inhibition at 0.01 µM [16] [%] | other results
1 | CCc1c(F)ccc2cc(O)cc(N3CCc4c(nc(OC[C@@]56CCCN5C[C@H](F)C6)nc4N4CCCn5nc(C(=O)N6CCN(C)CC6)cc5C4)C3)c12 [Example 402, (5-(7-(8-ethyl-7-fluoro-3-hydroxynaphthalen-1-yl)-2-(((2R,7aS)-2-fluorohexahydro-1H-pyrrolizin-7a-yl)methoxy)-5,6,7,8-tetrahydropyrido[3,4-d]pyrimidin-4-yl)-5,6,7,8-tetrahydro-4H-pyrazolo[1,5-a][1,4]diazepin-2-yl)(4-methylpiperazin-1-yl)methanone] | 24 | 98 | 2 | 98 | 10 | 5.7 | 98 | 54 | 23 | < 2 | < 2 | 99 | 3910 | 98 | < 2 | 100 | –
2 | CCc1c(F)ccc2cc(O)cc(N3CCc4c(nc(OC[C@@]56CCCN5C[C@H](F)C6)nc4N4CCCn5nc(C(=O)N(C)C)nc5C4)C3)c12 [Example 403, 8-(7-(8-ethyl-7-fluoro-3-hydroxynaphthalen-1-yl)-2-(((2R,7aS)-2-fluorohexahydro-1H-pyrrolizin-7a-yl)methoxy)-5,6,7,8-tetrahydropyrido[3,4-d]pyrimidin-4-yl)-N,N-dimethyl-6,7,8,9-tetrahydro-5H-[1,2,4]triazolo[1,5-a][1,4]diazepine-2-carboxamide] | 18 | 100 | 2 | 100 | 7 | 2 | 100 | 44 | 3 | < 2 | < 2 | 100 | 2940 | 100 | < 2 | 100 | –
3 | CCc1c(F)ccc2cc(O)cc(N3CCc4c(nc(OC[C@@]56CCCN5C[C@H](F)C6)nc4N4CCCn5nc(NC)c(F)c5C4)C3)c12 [Example 406, 5-ethyl-6-fluoro-4-(4-(3-fluoro-2-(methylamino)-7,8-dihydro-4H-pyrazolo[1,5-a][1,4]diazepin-5(6H)-yl)-2-(((2R,7aS)-2-fluorohexahydro-1H-pyrrolizin-7a-yl)methoxy)-5,6-dihydropyrido[3,4-d]pyrimidin-7(8H)-yl)naphthalen-2-ol] | 143 | 73 | 59 | 66 | 100 | 24.6 | 70 | 331 | 110 | < 2 | 3 | 82 | > 10000 | 68 | < 2 | 87 | –
4 | CCc1c(F)ccc2cc(O)cc(N3CCc4c(nc(OC[C@@]56CCCN5C[C@H](F)C6)nc4N4CCCn5nc(NC(C)C)cc5C4)C3)c12 [Example 407, 5-ethyl-6-fluoro-4-(2-(((2R,7aS)-2-fluorohexahydro-1H-pyrrolizin-7a-yl)methoxy)-4-(2-(isopropylamino)-7,8-dihydro-4H-pyrazolo[1,5-a][1,4]diazepin-5(6H)-yl)-5,6-dihydropyrido[3,4-d]pyrimidin-7(8H)-yl)naphthalen-2-ol] | 151 | 61 | 97 | 56 | 86 | 32.9 | 56 | 593 | 124 | 2 | 4 | 71 | > 10000 | 56 | 4 | 78 | –
5 | CCc1c(F)ccc2cc(O)cc(N3CCc4c(nc(OC[C@@]56CCCN5C[C@H](F)C6)nc4N4CCCn5nc6c(c5C4)CCNC6=O)C3)c12 [Example 408, 2-(7-(8-ethyl-7-fluoro-3-hydroxynaphthalen-1-yl)-2-(((2R,7aS)-2-fluorohexahydro-1H-pyrrolizin-7a-yl)methoxy)-5,6,7,8-tetrahydropyrido[3,4-d]pyrimidin-4-yl)-2,3,4,5,10,11-hexahydro-1H-pyrido[3′,4′:3,4]pyrazolo[1,5-a][1,4]diazepin-8(9H)-one] | 594 | 98 | 90 | 97 | 166 | 21.7 | 97 | 1040 | 363 | < 2 | < 2 | 100 | 5510 | 98 | < 2 | 99 | –
6 | CCc1c(F)ccc2cc(O)cc(N3CCc4c(nc(OC[C@@]56CCCN5C[C@H](F)C6)nc4N4CCCn5nc6c(c5C4)CCCN(C)C6=O)C3)c12 [Example 409, 2-(7-(8-ethyl-7-fluoro-3-hydroxynaphthalen-1-yl)-2-(((2R,7aS)-2-fluorohexahydro-1H-pyrrolizin-7a-yl)methoxy)-5,6,7,8-tetrahydropyrido[3,4-d]pyrimidin-4-yl)-9-methyl-2,3,4,5,9,10,11,12-octahydroazepino[3′,4′:3,4]pyrazolo[1,5-a][1,4]diazepin-8(1H)-one] | 57 | 100 | 8 | 100 | 7 | 3.1 | 100 | 212 | 22 | < 2 | < 2 | 100 | 1220 | 100 | < 2 | 100 | –
7 | C[C@@H]1C[C@@H]1c1c(Cl)cc2[nH]ncc2c1N1CCc2c(nc(OCC34CCCN3CCC4)nc2N2CCC[C@]3(C2)NC(=O)NC3=O)C1 [Example 449, (R)-7-(7-(6-chloro-5-((1S,2R)-2-methylcyclopropyl)-1H-indazol-4-yl)-2-((hexahydro-1H-pyrrolizin-7a-yl)methoxy)-5,6,7,8-tetrahydropyrido[3,4-d]pyrimidin-4-yl)-1,3,7-triazaspiro[4.5]decane-2,4-dione] | – | – | 5760 | – | 2690 | 53.7 | – | – | – | < 2 | < 2 | – | > 10000 | – | 3 | – | IC50 [2]: < 2 nM; IC50 [4]: < 2 nM; IC50 [7]: < 2 nM; IC50 [12]: < 2 nM; IC50 [14]: < 2 nM; IC50 [16]: < 2 nM
8 | CN(C)C(=O)c1cc2n(n1)CCCN(c1nc(OC[C@@]34CCCN3C[C@H](F)C4)nc3c1CCN(c1cccc4cccc(Cl)c14)C3)C2 [Example 483, 5-(7-(8-chloronaphthalen-1-yl)-2-(((2R,7aS)-2-fluorohexahydro-1H-pyrrolizin-7a-yl)methoxy)-5,6,7,8-tetrahydropyrido[3,4-d]pyrimidin-4-yl)-N,N-dimethyl-5,6,7,8-tetrahydro-4H-pyrazolo[1,5-a][1,4]diazepine-2-carboxamide] | – | – | 1160 | – | 1220 | 1470 | – | – | – | 57 | 20 | – | > 10000 | – | 9 | – | IC50 [2]: 81 nM; IC50 [4]: 238 nM; IC50 [7]: 239 nM; IC50 [12]: 46 nM; IC50 [14]: 150 nM; IC50 [16]: 42 nM

Source: patent publication US20250368649A1, “TETRAHYDROPYRIDOPYRIMIDINE PAN-KRAS INHIBITORS” (Mirati Therapeutics, Inc., priority 2022, published 2025)
